Data on one compound can be found in patent US20220168384A1, “Anti-Bacterial Combination Therapy” (McMaster University, priority 2019, published 2022).

The test system of one series is E. coli BW25113. Put plainly: Thiostrepton susceptibility of E. coli in MHB versus 10:90. The note with it: 10:90 medium; up to 10 μM (17 μg/ml) TS. Format: cell-based, Escherichia coli. The text has this:
(§1) The susceptibility of P. aeruginosa PA14, E. coli BW25113, A. baumannii C0286, and S. aureus USA300 was compared in MHB versus 10:90 medium. E. coli lacks FpvAB and is resistant to TS in both media.

The test system of series [1] is P. aeruginosa PAO1. Put plainly: Checkerboard assays of TS with DFP, DSX or 10% serum. Format: cell-based, Pseudomonas aeruginosa. The note with it: 10:90 + 10% heat-inactivated mouse or human serum, regardless of DSX. As to the method: Human serum (Corning) and mouse serum (Equitech-Bio) were stored at −20° C. Sera were aliquoted into 5-ml culture tubes by thawing once at 37° C. for 30 min with occasional gentle mixing. Culture tubes were frozen at −20° C. until use. To make 10% serum solutions, serum was thawed for 10 min at 37° C. and then heat inactivated at 57° C. for 30 min. Two milliliters of heat-inactivated serum were added to 18 ml of 10:90 medium and gently mixed. This 10% serum solution was used for checkerboard assays.
Checkerboard assays were set-up using Nunc 96-well plates in an 8-well by 8-well format. Two columns were allocated for vehicle controls and two columns for sterility controls. Vehicle controls contained 2 μL DMSO plus 2 μL DFP solvent for checkerboards with TS and DFP or 4 μL DMSO for TS and DSX, in 146 μL of 10:90 medium or 10% serum inoculated with PA14 or PAO1-KP as described in Growth Curves. Sterile controls contained the same components in 10:90 medium or 10% serum, without cells. Serial dilutions of TS—with 17 μg/mL being the highest final concentration—were added along the y axis of the checkerboard (increasing concentration from bottom to top) whereas serial dilutions of DFP or DSX—with 512 μg/mL being the highest final concentration—were added along the x axis (increasing concentration from left to right). The final volume of each well was 150 μL and each checkerboard was repeated at least three times. Plates were incubated and the final OD600 determined as detailed above.

Series [2] is described as follows: Chrome azurol S (CAS) plate assay. Format: physicochemical. The note with it: 5 μl of 2 mg/ml; room temperature 1 h.
The subject of series [3] is methicillin-resistant Staphylococcus aureus USA300. Put plainly: Thiostrepton susceptibility of S. aureus in MHB versus 10:90. Format: cell-based. The note with it: both 10:90 medium and MHB.
Source text: as §1

The subject of series [4] is P. aeruginosa PAO1. Description: TS dose response assay (biofilm and planktonic growth). It is filed as cell-based, Pseudomonas aeruginosa. As to the method:
Briefly, P. aeruginosa was inoculated in 5 mL of LB and grown at 37° C. overnight, shaking at 200 rpm, and subsequently standardized to an OD600 of ˜ 0.1 in 10:90. For the initial screen, 1 mM compound stocks in DMSO were diluted 1:100 in standardized cell suspension (1.5 μL of compound stock in 148.5 μL of cell suspension) to a final concentration of 10 μM. Control wells contained 10:90 plus 1% DMSO (sterility control) or standardized cell suspension plus 1% DMSO (growth control). Biofilms were formed on polystyrene peg lids (Nunc). After placement of the peg lid, the plate was sealed with parafilm to prevent evaporation and incubated for 16 h at 37° C., 200 rpm. Following incubation, the 96-peg lid was removed and planktonic density in the 96 well plate measured at OD600 to assess the effect of test compounds on bacterial growth. The lid was transferred to a new microtiter plate containing 200 μl of 1× phosphate-buffered saline (PBS) per well for 10 min to wash off any loosely adherent bacterial cells, then to a microtiter plate containing 200 μL of 0.1% (wt/vol) crystal violet (CV) per well for 15 min. Following staining, the lid was washed with 70 mL of dH2O, in a single well tray, for 10 min. This step was repeated four times to ensure complete removal of excess CV. The lid was transferred to a 96-well plate containing 200 μL of 33% (vol/vol) acetic acid per well for 5 min to elute the bound CV. The absorbance of the eluted CV was measured at 600 nm (BioTek ELx800), and the results plotted as percent of the DMSO control using Prism (Graphpad). Screens were performed in duplicate. […]. Compounds of interest were further evaluated using the same assay but over a wider range of concentrations (dose-response assay). […].
For TS dose response assays, TS stock solutions were diluted in DMSO and 2 μL of the resulting solutions plus 148 μL of a bacterial suspension standardized to an OD600 of ˜0.1 in 10:90 were added to a 96 well plate in triplicate, as described above. Control wells contained 148 μL of 10:90+1.3% DMSO (sterility control) or standardized bacterial suspension+1.3% DMSO (growth control). For ethylenediamine-N,N′-bis(2-hydroxyphenylacetic acid) (EDDHA) alone or with FeCl3 experiments, 2 μL of each were added as aqueous solutions to reach final concentrations of 0.1 μM EDDHA and 100 μM FeCl3, and the amount of bacterial suspension adjusted to keep the total well volume at 150 μL. Controls for EDDHA and FeCl3 were 2 μL of sterile dH2O. Biofilms were grown for 16 h at 37° C., 200 rpm, then stained and quantified as described above. Assays were performed in triplicate and results were graphed using Prism (Graphpad) as a percentage of the DMSO control.
Deletion mutants lacking the outer membrane components of the 4 major resistance-nodulation-division (RND) efflux systems of P. aeruginosa (MexAB-OprM, MexXY-OprM, MexCD-OprJ, and MexEF-OpmD) were generated. Briefly, the pairs of primers listed in Table 3 were used to amplify regions up- and downstream of the gene to be deleted. The PCR products were digested with the restriction enzymes indicated in the primer sequences and the resulting fragments ligated into the suicide vector pEX18Gm. After DNA sequencing validation of the constructs, they were introduced into E. coli SM10 for biparental mating into P. aeruginosa PAO1. Mating mixtures were plated on Pseudomonas isolation agar containing 200 μg/ml gentamicin (Gm) to counterselect the donor. Gm-sensitive double recombinants were selected on LB agar, with no salt and with 5% (wt/vol) sucrose. Gm-sensitive deletion mutants were identified by PCR and validated by DNA sequencing of the deletion junction.

Setting [5] is: PAO1, 10:90 medium, dose-dependent, up to 10 μM TS.

What is called solubility is the concentration that dissolves in the medium under given conditions. Read a high solubility as much dissolved substance.

Where “and” joins values, the source holds several entries; their conditions need not be identical. Identical values can stand only once.

Turning to `C=C(NC(=O)C(=C)NC(=O)c1csc(C2=N[C@@H]3c4csc(n4)[C@H]4NC(=O)c5csc(n5)[C@H]([C@](C)(O)[C@@H](C)O)NC(=O)[C@H]5CSC(=N5)/C(=C/C)NC(=O)[C@H]([C@@H](C)O)NC(=O)c5csc(n5)[C@]3(CC2)NC(=O)[C@H](C)NC(=O)C(=C)NC(=O)[C@H](C)NC(=O)[C@H]([C@@H](C)CC)N[C@@H]2C=Cc3c([C@H](C)O)cc(nc3[C@H]2O)C(=O)O[C@@H]4C)n1)C(N)=O` [TS, thiostrepton], the growth result in the series on E. coli BW25113 is on record as “unaffected”. The “concentration of TS required to inhibit growth in serum” value in the series with P. aeruginosa PAO1 [1] was “markedly decreased”. For the same compound, the “decolorization of CAS agar (iron binding)” value in series [2] was “lack of a color change”. Further, the solubility in “physchem” is 10 µM and 17 µg/mL. For the same compound, the “TS concentration inhibiting growth” value in series [3] is less than 40 nM. In the series with P. aeruginosa PAO1 [4] (PAO1, 10:90 + 0.1 μM EDDHA + 100 μM FeCl3), the “planktonic cell density and biofilm stimulation with EDDHA and FeCl3” value is “increased planktonic cell density and reduced biofilm stimulation”. Moreover, in the series with P. aeruginosa PAO1 [4] (PAO1, 10:90 + 0.1 μM EDDHA versus 10:90 alone), the “biofilm stimulation and growth inhibition with EDDHA” value was “shifted biofilm stimulation and growth inhibition to lower concentrations of TS”. In addition, in the series on P. aeruginosa PAO1 [4] (setting [5]), the biofilm formation entry was “stimulated biofilm formation” and the planktonic cell density result is given as “decreased planktonic cell density”. In addition, in the series with P. aeruginosa PAO1 [4] (PAO1, VBMM), the “TS concentrations at which planktonic cell density decreased to below the level of detection” value is greater than 0.63 µM. In addition, the “TS susceptibility on supplementation with casamino acids” value in the series with P. aeruginosa PAO1 [4] (PAO1, VBMM + 0.1% casamino acids) was “no change in TS susceptibility”. Moreover, in the series on P. aeruginosa PAO1 [4] (PAO1, VBMM + 100 mM MgCl2), the “TS susceptibility on supplementation with MgCl2” value was “no effect on susceptibility”. Besides, the “TS susceptibility of mutants lacking the major efflux pumps” value with P. aeruginosa PAO1 [4] (PAO1 efflux deletion mutants) is given as “near-wild-type susceptibility”. The “TS susceptibility on deletion of peptide transport systems” value with P. aeruginosa PAO1 [4] (simultaneous deletion of components of Opp (Npp) and Spp) is “no effect on TS susceptibility”.
